From patent US20240173425A1, “HUMAN CD33 ANTIBODIES AND GLUCOCORTICOID CONJUGATES” (Eli Lilly and Company, priority 2022, published 2024)
Read-outs that look alike come from different tables or passages of the source. Marks after values point to notes of the source that are not given here.

Tests used:
[1] = test system: oxazolone-induced skin inflammation; experiment: Oxazolone-induced contact hypersensitivity in humanized mouse model (HuNOG-EXL); assay type: in vivo; details: Challenge 3, 3 mg/kg SC 1 hour prior to sensitization and each challenge
Method: (§1) Briefly, huNOG-EXL mice were engrafted at 6 weeks of age with human CD34+ hematopoietic stem cells isolated from human cord blood. 20-24 weeks after stem cell administration the mice were assessed for human CD45 engraftment (>25% in blood) and subjected to an oxazolone-induced contact hypersensitivity protocol. […] 24 hours (Day 1) post administration, the mice were anesthetized with 5% isoflurane, their abdomens shaved, and sensitized with 100 μL of 3% oxazolone in ethanol (applied to the shaved area). Mice were dosed again on Day 4, 11, and 16 as above, and challenged with 2% oxazolone in ethanol on both ears (10 μL/side/ear) 48 hours post each dose (Day 6—Challenge 1, Day 13—Challenge 2, and Day 18—Challenge 3). For the GC1 alone group, mice were dosed with 3 mg/kg SC 1 hour prior to sensitization and prior to each challenge. Upon final challenge, mice were euthanized, and ear tissue and the gastrocnemius was collected for analysis of target selective and non-target selective tissue expression of GC regulated genes.

FKBP5 gene expression = experiment: GC regulated gene expression in tissues of the contact hypersensitivity model; assay type: in vivo, mouse; details: 3 mg/kg
Method: as §1

human PBMCs = experiment: Proinflammatory cytokine modulation in LPS-stimulated PBMCs; assay type: cell-based; details: PBMC, 200 nM, LPS 100 pg/mL, 24 hours
Method: PBMCs were used to mimic in vivo conditions. […] The cells were then stimulated with LPS (Sigma cat. L2880) at 100 pg/mL in a 37° C. incubator for 24 hours. Culture supernatants were collected to measure the indicated cytokines (Proinflammatory Panel II (human) 4-Plex kits, MSD, K15053D-2).

[2] = test system: human plasmacytoid dendritic cells (pDCs); experiment: Plasmacytoid dendritic cell differentiation assay; assay type: cell-based; details: human PBMCs, IL-3 supplemented media, CpG stimulation
Method: The differentiation of pDC was measured by flow cytometry. The functional effects of the pDC were measured by type I IFN (IFNα) production.

Cc1ccc(OCc2cccc(N)c2)c(F)c1[C@H]1O[C@@H]2C[C@H]3[C@@H]4CCC5=CC(=O)C=C[C@]5(C)[C@H]4[C@@H](O)C[C@]3(C)[C@]2(C(=O)CO)O1 (single isomer, unassigned) [GC1]
Δ Ear thickness, Mean [1]: 0.018*^ mm | Fold increase in FKBP5 gene expression compared to Isotype, Gastrocnemius, Mean (FKBP5 gene expression; non-targeted tissue (Gastrocnemius)): 3.958 | Fold increase in FKBP5 gene expression compared to Isotype, Ear, Mean (FKBP5 gene expression; targeted tissue (Ear)): 4.505 | inhibition at 0.2 µM (human PBMCs; read-out: % Inhibition of human IL-6 secretion at 200 nM): 83.9 ± 2.81% | inhibition at 0.2 µM (human PBMCs; read-out: % Inhibition of human TNFa secretion at 200 nM): 85.1 ± 3.28% | % Inhibition of human IFNα secretion [2]: 97.18 ± 2.95% | % Inhibition of pDC cell differentiation ([2]; flow cytometry): 95.50 ± 8.32%
